Measurements as given in patent publication US7192958B2, “Sodium channel blockers” (Parion Sciences, Inc., priority 2002, dated 2007).

biological target: T1, airway epithelial sodium currents (epithelial Na+ channel, ENaC) in canine bronchial epithelia (Canis lupus familiaris, UniProt A0A8I3MKE6+A0A8I3Q679+Q95165); assay: Sodium channel blocking activity: potency in canine bronchial epithelia, short circuit current (ISC) in Ussing chambers; format: cell-based; settings: relative to amiloride as positive control
T1 construct: endogenous in cells; host or cells: primary canine bronchial epithelial cells cultured at air-liquid interface, mounted in Ussing chambers
T1 sequence (A0A8I3Q679 1-649): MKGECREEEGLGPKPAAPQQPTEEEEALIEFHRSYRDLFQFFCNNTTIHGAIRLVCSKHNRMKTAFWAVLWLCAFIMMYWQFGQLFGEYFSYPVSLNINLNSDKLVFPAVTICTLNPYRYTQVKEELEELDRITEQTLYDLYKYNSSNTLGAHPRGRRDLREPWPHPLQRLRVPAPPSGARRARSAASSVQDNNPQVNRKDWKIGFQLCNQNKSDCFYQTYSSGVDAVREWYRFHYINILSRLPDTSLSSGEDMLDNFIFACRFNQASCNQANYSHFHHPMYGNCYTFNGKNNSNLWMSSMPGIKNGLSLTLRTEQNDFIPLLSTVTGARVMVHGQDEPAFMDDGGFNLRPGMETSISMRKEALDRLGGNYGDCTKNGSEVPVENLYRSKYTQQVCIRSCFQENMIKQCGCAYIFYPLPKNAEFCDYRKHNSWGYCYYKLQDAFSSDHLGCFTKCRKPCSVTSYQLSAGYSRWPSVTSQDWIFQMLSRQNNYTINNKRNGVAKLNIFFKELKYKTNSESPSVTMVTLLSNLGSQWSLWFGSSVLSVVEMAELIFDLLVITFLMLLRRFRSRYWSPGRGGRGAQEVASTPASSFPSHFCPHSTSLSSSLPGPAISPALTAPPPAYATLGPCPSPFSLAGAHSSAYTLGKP
T1 sequence (Q95165 1-641): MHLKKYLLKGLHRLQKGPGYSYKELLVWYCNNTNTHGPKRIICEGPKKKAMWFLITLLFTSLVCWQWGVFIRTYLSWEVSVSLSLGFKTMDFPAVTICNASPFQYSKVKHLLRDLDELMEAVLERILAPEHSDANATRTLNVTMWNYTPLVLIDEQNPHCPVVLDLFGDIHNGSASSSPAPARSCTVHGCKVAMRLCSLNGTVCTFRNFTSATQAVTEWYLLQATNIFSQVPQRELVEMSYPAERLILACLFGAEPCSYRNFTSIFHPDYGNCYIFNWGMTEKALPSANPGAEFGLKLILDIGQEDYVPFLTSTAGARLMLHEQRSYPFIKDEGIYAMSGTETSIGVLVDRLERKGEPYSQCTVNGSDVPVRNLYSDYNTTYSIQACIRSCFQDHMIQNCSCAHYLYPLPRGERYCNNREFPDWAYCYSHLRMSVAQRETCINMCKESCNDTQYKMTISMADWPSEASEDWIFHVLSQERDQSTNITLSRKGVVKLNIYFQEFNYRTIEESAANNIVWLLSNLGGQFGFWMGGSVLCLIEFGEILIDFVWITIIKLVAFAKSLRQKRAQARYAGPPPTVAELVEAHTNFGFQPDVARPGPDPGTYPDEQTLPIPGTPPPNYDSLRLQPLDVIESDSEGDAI
T1 sequence (A0A8I3MKE6 1-646): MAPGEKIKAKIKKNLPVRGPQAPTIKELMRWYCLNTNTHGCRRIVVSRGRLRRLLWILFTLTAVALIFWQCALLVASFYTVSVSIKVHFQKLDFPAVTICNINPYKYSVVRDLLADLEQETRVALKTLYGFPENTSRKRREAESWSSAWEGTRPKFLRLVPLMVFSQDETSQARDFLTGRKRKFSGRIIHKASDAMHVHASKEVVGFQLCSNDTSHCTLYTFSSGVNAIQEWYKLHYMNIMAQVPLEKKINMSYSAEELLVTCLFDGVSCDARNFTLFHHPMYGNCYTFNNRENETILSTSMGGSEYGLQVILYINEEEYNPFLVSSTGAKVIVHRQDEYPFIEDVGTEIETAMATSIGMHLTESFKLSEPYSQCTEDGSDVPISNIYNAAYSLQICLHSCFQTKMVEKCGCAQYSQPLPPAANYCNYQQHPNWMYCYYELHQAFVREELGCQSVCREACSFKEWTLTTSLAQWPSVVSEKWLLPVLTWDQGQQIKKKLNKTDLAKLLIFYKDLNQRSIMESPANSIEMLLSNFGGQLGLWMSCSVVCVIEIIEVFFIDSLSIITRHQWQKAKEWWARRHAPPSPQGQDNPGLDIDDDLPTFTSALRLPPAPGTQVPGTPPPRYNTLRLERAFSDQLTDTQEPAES
Experimental: One assay used to assess mechanism of action and/or potency of the compounds of the present invention involves the determination of lumenal drug inhibition of airway epithelial sodium currents measured under short circuit current (ISC) using airway epithelial monolayers mounted in Ussing chambers. Cells obtained from freshly excised human, dog, sheep or rodent airways are seeded onto porous 0.4 micron Snapwell™ Inserts (CoStar), cultured at air-liquid interface (ALI) conditions in hormonally defined media, and assayed for sodium transport activity (ISC) while bathed in Krebs Bicarbonate Ringer (KBR) in Using chambers. All test drug additions are to the lumenal bath with half-log dose addition protocols (from 1×10^−11 M to 3×10^−5M), and the cumulative change in ISC (inhibition) recorded. All drugs are prepared in dimethyl sulfoxide as stock solutions at a concentration of […] and stored at −20° C. Eight preparations are typically run in parallel; two preparations per run incorporate amiloride and/or benzamil as positive controls. After the maximal concentration ([…]) is administered, the lumenal bath is exchanged three times with fresh drug-free KBR solution, and the resultant ISCmeasured after each wash for approximately 5 minutes in duration. Reversibility is defined as the percent return to the baseline value for sodium current after the third wash. All data from the voltage clamps are collected via a computer interface and analyzed off-line.
Dose-effect relationships for all compounds are considered and analyzed by the Prism 3.0 program. IC50 values, maximal effective concentrations, and reversibility are calculated and compared to amiloride and benzamil as positive controls.
Amiloride was also tested in this assay as a positive control. The results for the compounds of the present invention are reported as fold-enhancement values relative to amiloride.

Point of comparison: `Cl.N=C(NCCCCc1ccc(O)cc1O)NC(=O)c1nc(Cl)c(N)nc1N` [drawing 26 Position 2,4 R H, 4-(2,4-Dihydroxyphenyl)butylamidino-3,5-diamino-6-chloropyrazinecarboxamide hydrochloride], “Fold Enhancement Over Amiloride” value 14.9 fold. Against it:
- Cl.N=C(NCCCc1ccc(O)cc1)NC(=O)c1nc(Cl)c(N)nc1N [drawing 27 n 3 Position of R 4 R OH, 3-(4-Hydroxyphenyl)propylamidino-3,5-diamino-6-chloropyrazinecarboxamide hydrochloride] — lower, 5.2 fold
- Cl.N=C(NCCCCCc1ccc(O)cc1)NC(=O)c1nc(Cl)c(N)nc1N [drawing 27 n 5 Position of R 4 R OH, 5-(4-Hydroxyphenyl)pentylamidino-3,5-diamino-6-chloropyrazinecarboxamide hydrochloride] — lower, 14 fold
- Cl.N=C(NCCCCc1ccc(O)c(O)c1)NC(=O)c1nc(Cl)c(N)nc1N [drawing 26 Position 3,4 R H, 4-(3,4-Dihydroxyphenyl)butylamidino-3,5-diamino-6-chloropyrazinecarboxamide hydrochloride] — higher, 15.1 fold
- Br.N=C(NCCCOc1ccc(O)cc1)NC(=O)c1nc(Cl)c(N)nc1N [drawing 29 a CH2 b O R H, 4-(4-Hydroxyphenyl)-4-oxabutylamidino-3,5-diamino-6-chloropyrazinecarboxamide hydrobromide] — higher, 16.1 fold
- Cl.N=C(NCCCCc1ccc(O)cc1)NC(=O)c1nc(Cl)c(N)nc1N [drawing 27 n 4 Position of R 4 R OH, 4-(4-hydroxyphenyl)butylamidino-3,5-diamino-6-chloropyrazinecarboxamide hydrochloride] — higher, 50.3 fold
